Structures can show the parent of a compound that is named as a salt. Where two headings read alike, the source gives them in different places.
Tests used:
hNav1.7 = target: T1, hNav1.7 (Homo sapiens, UniProt Q15858); assay: Tritiated compound binding (LBA) to membranes from cells expressing hNav1.7 and the β1 subunit, competitive binding; settings: competitive binding vs 100 pM [3H]compound, 18 h, room temperature, membranes with hNav1.7 and β1 subunit
T1 construct: expressed in transfected cells
T1 sequence (Q15858 1-1977 isoform Q15858-3): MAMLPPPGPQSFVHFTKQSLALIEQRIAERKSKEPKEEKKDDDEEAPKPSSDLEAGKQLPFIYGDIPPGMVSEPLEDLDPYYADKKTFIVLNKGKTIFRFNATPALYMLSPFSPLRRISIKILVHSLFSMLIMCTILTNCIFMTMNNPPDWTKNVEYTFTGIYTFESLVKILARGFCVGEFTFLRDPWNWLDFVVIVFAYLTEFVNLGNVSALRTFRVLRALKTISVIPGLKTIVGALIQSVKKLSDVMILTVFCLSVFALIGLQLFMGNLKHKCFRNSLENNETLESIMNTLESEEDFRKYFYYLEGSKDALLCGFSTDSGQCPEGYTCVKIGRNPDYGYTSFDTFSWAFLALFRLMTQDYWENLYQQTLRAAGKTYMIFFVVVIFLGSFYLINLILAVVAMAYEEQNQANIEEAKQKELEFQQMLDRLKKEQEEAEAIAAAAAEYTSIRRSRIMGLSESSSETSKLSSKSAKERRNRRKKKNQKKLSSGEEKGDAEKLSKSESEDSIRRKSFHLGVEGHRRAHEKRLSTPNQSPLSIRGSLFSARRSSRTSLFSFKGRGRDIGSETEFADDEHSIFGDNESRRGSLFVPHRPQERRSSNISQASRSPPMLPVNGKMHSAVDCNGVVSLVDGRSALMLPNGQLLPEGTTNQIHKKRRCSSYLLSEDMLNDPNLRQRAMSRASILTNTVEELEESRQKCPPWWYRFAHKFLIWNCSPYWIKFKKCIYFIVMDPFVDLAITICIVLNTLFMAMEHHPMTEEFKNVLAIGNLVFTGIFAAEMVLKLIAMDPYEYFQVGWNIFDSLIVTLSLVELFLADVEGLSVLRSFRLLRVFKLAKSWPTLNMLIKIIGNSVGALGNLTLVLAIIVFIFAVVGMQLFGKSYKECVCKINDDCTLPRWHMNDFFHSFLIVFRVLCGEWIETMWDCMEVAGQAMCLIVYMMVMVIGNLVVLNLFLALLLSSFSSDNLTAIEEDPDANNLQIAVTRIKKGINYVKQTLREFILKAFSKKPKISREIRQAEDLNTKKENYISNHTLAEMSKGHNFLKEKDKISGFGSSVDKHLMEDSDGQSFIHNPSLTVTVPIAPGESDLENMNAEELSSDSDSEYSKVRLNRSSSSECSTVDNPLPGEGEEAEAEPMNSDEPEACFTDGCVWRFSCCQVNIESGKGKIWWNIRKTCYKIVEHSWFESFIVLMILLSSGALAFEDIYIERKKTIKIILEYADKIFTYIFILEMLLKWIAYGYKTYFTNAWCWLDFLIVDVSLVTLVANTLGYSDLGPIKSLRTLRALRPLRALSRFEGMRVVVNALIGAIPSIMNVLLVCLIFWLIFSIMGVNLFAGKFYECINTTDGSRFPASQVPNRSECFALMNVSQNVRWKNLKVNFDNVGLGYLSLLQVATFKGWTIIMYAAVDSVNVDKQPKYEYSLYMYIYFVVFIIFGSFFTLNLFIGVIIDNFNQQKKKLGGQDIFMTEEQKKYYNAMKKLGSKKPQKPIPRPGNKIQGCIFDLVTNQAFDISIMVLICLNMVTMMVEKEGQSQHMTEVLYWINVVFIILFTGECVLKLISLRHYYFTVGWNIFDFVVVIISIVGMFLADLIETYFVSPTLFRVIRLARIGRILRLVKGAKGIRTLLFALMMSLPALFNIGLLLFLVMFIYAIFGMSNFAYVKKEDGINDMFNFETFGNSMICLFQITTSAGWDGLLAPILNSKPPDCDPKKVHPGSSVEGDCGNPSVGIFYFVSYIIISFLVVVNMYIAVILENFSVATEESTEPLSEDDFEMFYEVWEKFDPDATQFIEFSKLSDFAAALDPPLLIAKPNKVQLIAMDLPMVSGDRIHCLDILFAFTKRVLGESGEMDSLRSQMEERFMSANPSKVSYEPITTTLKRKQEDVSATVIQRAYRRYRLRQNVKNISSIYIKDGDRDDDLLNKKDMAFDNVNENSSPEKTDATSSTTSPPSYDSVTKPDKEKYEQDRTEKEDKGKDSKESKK
T1 sequence (Q07699 19-218 partner): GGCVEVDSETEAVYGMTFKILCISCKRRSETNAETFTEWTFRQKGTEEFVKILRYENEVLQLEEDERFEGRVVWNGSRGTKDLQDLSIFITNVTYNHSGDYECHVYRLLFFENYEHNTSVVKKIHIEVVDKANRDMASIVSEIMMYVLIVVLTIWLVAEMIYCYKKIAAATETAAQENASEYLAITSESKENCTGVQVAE
Outline: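 Membranes from cells expressing hNav1.7 with β1 were incubated 18 h at room temperature with 100 pM tritiated formula (I) compound and increasing test compound, in 100 mM NaCl, 20 mM Tris HCl pH 7.4, 0.01% BSA.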

human NaV1.7 = target: T2, human NaV1.7 (Homo sapiens, UniProt Q15858); assay: Patch voltage clamp electrophysiology assay (EP), NaV1.7; format: cell-based; settings: HEK-293 cells stably expressing NaV1.7 with β1 subunit; whole-cell patch clamp, membrane potential −60 mV (inactivated state)
T2 construct: permanently transfected with an expression vector containing the full-length cDNA coding for the desired human sodium channel α-subunit; expressed in transfected cells; host or cells: HEK-293
T2 sequence (Q15858 1-1977 isoform Q15858-3): as the sequence (Q15858 1-1977 isoform Q15858-3) above
T2 sequence (Q07699 19-218 partner): as the sequence (Q07699 19-218 partner) above
Outline: (§1)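 HEK-293 cells stably expressing human α-subunit with β1; whole-cell patch clamp (PatchXpress or manual), ambient temperature, pH 7.4 external NaCl, CsF internal. Held at −60 mV (full inactivation), stepped to −150 mV for 20 ms, then test pulse; percent current decrease after compound wash-on taken as block.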

NaV1.5 = target: T3, NaV1.5 (Homo sapiens, UniProt Q14524); assay: Patch voltage clamp electrophysiology assay (EP), NaV1.5; format: cell-based; settings: HEK-293 cells stably expressing NaV1.5 with β1 subunit, whole-cell patch clamp, membrane potential −60 mV (inactivated state)
T3 construct: permanently transfected with an expression vector containing the full-length cDNA coding for the desired human sodium channel α-subunit; expressed in transfected cells; host or cells: HEK-293
T3 sequence (Q14524 whole entry): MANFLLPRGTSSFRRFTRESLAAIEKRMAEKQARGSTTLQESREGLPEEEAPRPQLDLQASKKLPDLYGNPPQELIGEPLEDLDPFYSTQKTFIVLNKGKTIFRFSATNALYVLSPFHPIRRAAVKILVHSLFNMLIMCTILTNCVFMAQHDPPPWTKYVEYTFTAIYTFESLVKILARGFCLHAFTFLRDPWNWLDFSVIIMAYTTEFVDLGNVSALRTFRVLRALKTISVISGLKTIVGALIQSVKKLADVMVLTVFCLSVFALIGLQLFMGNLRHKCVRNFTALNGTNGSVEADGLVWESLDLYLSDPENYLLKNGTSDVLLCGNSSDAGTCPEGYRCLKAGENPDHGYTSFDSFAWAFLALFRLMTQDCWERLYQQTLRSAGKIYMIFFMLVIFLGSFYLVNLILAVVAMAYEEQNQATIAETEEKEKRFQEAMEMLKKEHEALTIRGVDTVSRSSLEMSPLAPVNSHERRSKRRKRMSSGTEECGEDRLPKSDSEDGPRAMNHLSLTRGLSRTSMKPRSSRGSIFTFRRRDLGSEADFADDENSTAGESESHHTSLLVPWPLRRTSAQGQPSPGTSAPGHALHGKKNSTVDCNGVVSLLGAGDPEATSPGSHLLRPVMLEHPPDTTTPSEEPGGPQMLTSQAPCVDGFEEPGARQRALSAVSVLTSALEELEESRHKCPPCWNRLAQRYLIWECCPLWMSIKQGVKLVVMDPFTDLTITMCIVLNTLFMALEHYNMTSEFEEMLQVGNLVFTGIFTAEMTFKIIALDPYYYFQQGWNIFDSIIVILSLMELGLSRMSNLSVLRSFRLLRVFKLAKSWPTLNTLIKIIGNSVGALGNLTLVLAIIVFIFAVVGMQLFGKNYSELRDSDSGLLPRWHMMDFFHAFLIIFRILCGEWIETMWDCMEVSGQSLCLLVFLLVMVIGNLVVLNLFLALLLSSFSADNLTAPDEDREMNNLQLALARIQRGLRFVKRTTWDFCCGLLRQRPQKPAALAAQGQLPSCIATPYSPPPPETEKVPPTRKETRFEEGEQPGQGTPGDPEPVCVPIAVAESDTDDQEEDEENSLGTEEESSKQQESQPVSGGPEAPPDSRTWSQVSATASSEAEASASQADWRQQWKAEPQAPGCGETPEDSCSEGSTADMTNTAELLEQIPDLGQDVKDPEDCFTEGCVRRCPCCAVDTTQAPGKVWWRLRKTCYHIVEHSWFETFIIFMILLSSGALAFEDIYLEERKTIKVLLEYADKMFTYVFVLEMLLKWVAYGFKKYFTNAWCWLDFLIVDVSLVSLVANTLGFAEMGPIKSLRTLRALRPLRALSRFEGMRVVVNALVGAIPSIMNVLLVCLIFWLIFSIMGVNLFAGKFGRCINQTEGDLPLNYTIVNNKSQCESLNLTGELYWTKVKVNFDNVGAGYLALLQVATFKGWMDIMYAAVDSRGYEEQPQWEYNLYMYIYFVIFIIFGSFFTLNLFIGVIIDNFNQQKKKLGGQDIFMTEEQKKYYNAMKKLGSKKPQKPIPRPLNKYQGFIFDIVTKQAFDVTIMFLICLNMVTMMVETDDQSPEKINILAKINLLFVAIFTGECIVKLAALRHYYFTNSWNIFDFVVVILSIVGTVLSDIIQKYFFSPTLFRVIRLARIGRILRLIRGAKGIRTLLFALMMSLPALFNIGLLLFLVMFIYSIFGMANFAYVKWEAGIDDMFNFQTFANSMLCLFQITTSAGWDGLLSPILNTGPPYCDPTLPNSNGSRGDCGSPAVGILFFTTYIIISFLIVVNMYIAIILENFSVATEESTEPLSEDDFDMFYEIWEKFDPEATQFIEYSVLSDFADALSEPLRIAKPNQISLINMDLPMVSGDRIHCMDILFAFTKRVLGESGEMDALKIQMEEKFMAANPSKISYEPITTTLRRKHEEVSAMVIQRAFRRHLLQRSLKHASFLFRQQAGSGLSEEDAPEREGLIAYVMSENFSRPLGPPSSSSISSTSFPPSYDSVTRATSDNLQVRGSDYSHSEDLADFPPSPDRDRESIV
Outline: as §1

[1] = human, HEK-293 cells stably expressing human NaV1.5 with β1 subunit, pH 7.4

Row | IC50 (hNav1.7) [nM] | IC50 (human NaV1.7) [nM] | SMILES | IC50 (NaV1.5; read-out: Nav1.5) [nM] | IC50 (NaV1.5; [1]) [nM]
1 | 29 | 65 | C[C@H]1OCN(C(=O)c2cc(C3CC3)c(OCC3CCN(Cc4cc(C(F)(F)F)cc(Cl)c4F)CC3)cc2F)[C@@H]1C(=O)O [Example 227, (4S,5R)-3-(4-((1-(3-chloro-2-fluoro-5-(trifluoromethyl)benzyl)piperidin-4-yl)methoxy)-5-cyclopropyl-2-fluorobenzoyl)-5-methyloxazolidine-4-carboxylic acid] | 16000 | 
2 | 170 | 980 | O=C(O)[C@@H]1[C@H](F)CCN1C(=O)c1cc(C2CC2)c(OCC23CC4CC(CC(C4)C2)C3)cc1F [Example 63, (2R, 3R)-1-(4-((adamantan-1-yl)methoxy)-5-cyclopropyl-2-fluorobenzoyl)-3-fluoropyrrolidine-2-carboxylic acid] | 18000 | 
3 | 5300 | 3400 | O=C(O)[C@@H]1CC(O)(C(F)(F)F)CN1C(=O)c1cc(C2CC2)c(OCC23CC4CC(CC(C4)C2)C3)cc1F (stereo partly drawn) [Example 213, (2S)-1-(4-((adamantan-1-yl)methoxy)-5-cyclopropyl-2-fluorobenzoyl)-4-hydroxy-4-(trifluoromethyl)pyrrolidine-2-carboxylic acid] | 7600 | 
4 | 100 | 1400 | C[C@@H](c1cc(Cl)cc(Cl)c1)N1CCC(C#N)(COc2cc(F)c(C(=O)N3C[C@H](F)C[C@H]3C(=O)O)cc2C2CC2)CC1 (single isomer, unassigned) [Example 126b] | 10000 | 
5 | 400 | 830 | COc1ncccc1-c1cc(C(=O)N2CCC[C@H]2C(=O)O)c(F)cc1Oc1cnc(OC(C)C)c(Cl)c1 [Example 179, (S)-1-(4-((5-chloro-6-isopropoxypyridin-3-yl)oxy)-2-fluoro-5-(2-methoxypyridin-3-yl)benzoyl)pyrrolidine-2-carboxylic acid] |  | ≥ 30000
6 | 91 | 780 | C[C@@H](c1cc(Cl)cc(Cl)c1)N1CCC(COc2cc(F)c(C(=O)N3C[C@H](Cl)C[C@H]3C(=O)O)cc2C2CC2)CC1 [Example 169, (2S,4R)-4-chloro-1-(5-cyclopropyl-4-((1-((S)-1-(3,5-dichlorophenyl)ethyl)piperidin-4-yl)methoxy)-2-fluorobenzoyl)pyrrolidine-2-carboxylic acid] | 13000 | 
7 | 570 | 3700 | C[C@@]1(COc2cc(F)c(C(=O)N3CCC[C@H]3C(=O)O)cc2C2CC2)CCN(Cc2cc(F)cc(Cl)c2)C1 (single isomer, unassigned) [Example 137a] | 15000 | 
8 | 33 | 340 | O=C(O)[C@@H]1C[C@@H](F)CN1C(=O)c1cc(C2CC2)c(OCC2CCN(Cc3cc(C(F)(F)F)ccc3F)CC2)cc1F [Example 103, (2S,4R)-1-(5-cyclopropyl-2-fluoro-4-((1-(2-fluoro-5-(trifluoromethyl)benzyl)-piperidin-4-yl)methoxy)benzoyl)-4-fluoropyrrolidine-2-carboxylic acid] |  | ≥ 30000
9 | 8900 | 16000 | O=C(O)[C@@H]1CCCN1C(=O)c1cc(Cl)c(OC2C3CC4CC2CC(Cl)(C4)C3)cc1F (single isomer, unassigned) [Example 81] |  | ≥ 30000
10 | 51 | 890 | CC(C)Oc1ncc(CN2CCC(F)(COc3cc(F)c(C(=O)N4C[C@H](F)C[C@H]4C(=O)O)cc3C3CC3)CC2)cc1Cl [Example 109, (2S,4R)-1-(4-((1-((5-chloro-6-isopropoxypyridin-3-yl)methyl)-4-fluoropiperidin-4-yl)methoxy)-5-cyclopropyl-2-fluorobenzoyl)-4-fluoropyrrolidine-2-carboxylic acid] |  | ≥ 30000
11 | ≥ 10000 | 5300 | O=C(O)C1CCN(C(=O)c2cc(C3CC3)c(OCC34CC5CC(CC(C5)C3)C4)cc2F)C1 (stereo not drawn) [Example 65, 1-(4-(adamantan-1-ylmethoxy)-5-cyclopropyl-2-fluorobenzoyl)pyrrolidine-3-carboxylic acid] | 23000 | 
12 | 130 | 790 | CCc1cc(C(=O)N2CCC[C@H]2C(=O)O)c(F)cc1OCC12CC3CC(CC(C3)C1)C2 [Example 89, (S)-1-(4-(adamantan-1-ylmethoxy)-5-ethyl-2-fluorobenzoyl)pyrrolidine-2-carboxylic acid] | 17000 | 
13 | 17 | 220 | O=C(O)[C@@H]1C[C@@H](F)CN1C(=O)c1cc(C2CC2)c(OCC2CCN(Cc3cc(F)c(Cl)cc3Cl)CC2)cc1F [Example 108, (2S,4R)-1-(5-cyclopropyl-4-((1-(2,4-dichloro-5-fluorobenzyl)piperidin-4-yl)methoxy)-2-fluorobenzoyl)-4-fluoropyrrolidine-2-carboxylic acid] | 9600 | 
14 | 72 | 630 | O=C(O)[C@@H]1CCCN1C(=O)c1cc(C2CC2)c(COc2cc(Cl)cc(Cl)c2)s1 [Example 134, (S)-1-(4-cyclopropyl-5-((3,5-dichlorophenoxy)methyl)thiophene-2-carbonyl)pyrrolidine-2-carboxylic acid] | 7100 | 
15 | 70 | 800 | CC(C)[C@H](NC(=O)c1cc(C2CC2)c(OCC23CC4CC(CC(C4)C2)C3)cc1F)C(=O)O [Example 66, (S)-2-(4-(adamantan-1-ylmethoxy)-5-cyclopropyl-2-fluorobenzamido)-3-methylbutanoic acid] | 8100 | 
16 | 100 | 520 | CC1(C)CCC(COc2cc(F)c(C(=O)N3CCC[C@H]3C(=O)O)cc2C2CC2)CC1 [Example 68, (S)-1-(5-cyclopropyl-4-((4,4-dimethylcyclohexyl)methoxy)-2-fluorobenzoyl)pyrrolidine-2-carboxylic acid] | 19000 | 

Row | SMILES | IC50 (hNav1.7) [nM] | IC50 (human NaV1.7) [nM] | IC50 (NaV1.5; read-out: Nav1.5) [nM] | IC50 (NaV1.5; [1]) [nM]
17 | CC(C)COc1ncc(Oc2cc(F)c(C(=O)N3CCC[C@H]3C(=O)O)cc2Cl)cc1Cl [Example 97, 5-chloro-4-((5-chloro-6-isobutoxypyridin-3-yl)oxy)-2-fluorobenzoyl)-L-proline trifluoroacetic acid salt] | 440 | 570 |  | ≥ 30000
